Results on 3 compounds are retold here after paper PMC5302928, “[^64Cu]XYIMSR-06: A dual-motif CAIX ligand for PET imaging of clear cell renal cell carcinoma” (Oncotarget, 2016).

Like-named read-outs stand apart in the source and are kept apart here.

In test [1] the target is T1, CAIX (Homo sapiens, UniProt Q16790).
T1 construct: purchased R&D Systems (Minneapolis, MN)
Kind of test: Competitive fluorescence polarization assay with FITC-labeled dual-motif ligand. Conditions: 100 nM CAIX, 80 nM FITC-labeled ligand; read-out: IC50 (binding to CAIX, fluorescence polarization). As for the experimental part: Fluorescence polarization (FP) experiments were performed in 21 μL of the assay buffer (12.5 mM Tris-HCl, pH 7.5, 75 mM NaCl) in transparent flat bottom 384 well Small Volume™ LoBase Microplates (Greiner Bio-One, Frickenhausen Germany). The FP reaction employed 100 nM of purified CAIX (R&D systems, Minneapolis, MN) and 80 nM FITC-labeled ligand within the assay buffer. The FP values were measured as mP units using the Safire2™ plate reader (Tecan, Morrisville, NC) with excitation at 475 nm and emission at 532 nm emission. 100 nM CAIX was incubated with serially diluted (from 8 μM to […]) concentrations of the three targeting molecules, 1 and [^63/65Cu]XYIMSR-06 for 30 min at room temperature in 384 well plates. 80 nM FITC-labeled ligand was added to each well and the reaction was incubated for 30 min at room temperature followed by FP measurements. Experiments were carried out in triplicate and the concentration resulting in 50% response (IC50) was calculated in GraphPad Prism 5 (GraphPad Software, La Jolla, CA) using the sigmoidal dose-response regression function. […]
amino)butyl)-1H-1,2,3-triazol-1-yl)butyl)-6,9-dioxa- (FP) assay as described in the experimental section. The 3,12,15,19,23-pentaazaoctacosyl)-1,4,7-triazonane-1,4- IC50 values determined for dual motif precursor 1 (Figure diyl)diacetic acid ([Al19F]XYIMSR-04) . […]
eluded at 35.5 min. MS, calculated for C H AlFN N Heart, lungs, pancreas, spleen, fat, brain, muscle, small […]
and tumor were collected. Each organ was weighed and Radiosynthesis the tissue radioactivity was measured with an automated gamma counter (1282 Compugamma CS, Pharmacia/
For convenience, Na18F in saline purchased from LKBNuclear, Inc., Mt. […] Due to was calculated by comparison with samples of a standard […]
Radiosynthesis of [Al18F]XYIMSR-04. 400μg of Data were expressed as mean ± standard deviation XYIMSR-04 in 200 μL water/Ethanol 1:1 was added to (SD). […] To this mixture, 20 μL of 2 mM AlCl3/NaOAc significance was calculated using a paired t test. […]
On the technique in general: In fluorescence polarisation assays a small probe gives low polarisation when free and higher when bound to something large.

Test [2] deals with T1, CAIX. The arrangement: method as in PMID 26418876. Conditions: positive control, reported value; read-out: IC50 (binding to CAIX, same method); cited from earlier work.

The term IC50 denotes the point on the concentration scale where inhibition reaches its midpoint.

Turning to `CC(CCC(=O)N[C@@H](CC(=O)N[C@@H](CC(=O)N[C@@H](CCCCn1cc(CCCC(=O)Nc2nnc(S(N)(=O)=O)s2)nn1)C(=O)NCCOCCOCCNC(=S)Nc1ccc(CC2CN3CCN(CCN2CC(=O)O)CC(=O)[O][Cu][O]C(=O)C3)cc1)C(=O)O)C(=O)O)(c1ccc(O)cc1)c1ccc(O)cc1` (stereo partly drawn) [[^63/65Cu]XYIMSR-06, 2,2′,2″-(2-(4-(3-((11S,15S,19S)-15,19-Dicarboxy-24,24-bis(4-hydroxyphenyl)-10,13,17,21-tetraoxo-11-(4-(4-(4-oxo-4-((5-sulfamoyl-1,3,4-thiadiazol-2-yl)amino)butyl)-1H-1,2,3-triazol-1-yl)butyl)-3,6-dioxa-9,12,16,20-tetraazapentacosyl)thioureido)benzyl)-1,4,7-triazonane-1,4,7-triyl)triacetic acid], on CAIX [1], the IC50 was found to be 156 ± 4.3 nM.

`CC(CCC(=O)N[C@@H](CC(=O)N[C@@H](CC(=O)N[C@@H](CCCCn1cc(CCCC(=O)Nc2nnc(S(N)(=O)=O)s2)nn1)C(=O)NCCOCCOCCNC(=O)C[N+]12CC[N+]34CC[N+]5(CC1)CC(=O)[O][Al-3]235([F])[O]C(=O)C4)C(=O)O)C(=O)O)(c1ccc(O)cc1)c1ccc(O)cc1` (stereo partly shown) [[Al^19F]XYIMSR-04]: the IC50 on CAIX [1] amounted to 96.7 ± 3.3 nM.

Regarding `CC(CCC(=O)NC(CC(=O)NC(CC(=O)NC(CCCCn1cc(CCCC(=O)Nc2nnc(S(N)(=O)=O)s2)nn1)C(=O)NCCOCCOCCN)C(=O)O)C(=O)O)(c1ccc(O)cc1)c1ccc(O)cc1` (stereo not shown) [Compound 1, reference compound], the IC50 at CAIX [1] was 63.6 ± 2.8 nM; on CAIX [2], 75.9 nM.
